Tests used:
[1] = target: T1, platelet ADP receptors (Homo sapiens, UniProt Q9H244); assay: ARB assay: inhibition of [3H]2-MeS-ADP binding to platelets; conditions: IC50 class, [3H]2-MeS-ADP binding to whole human platelets
T1 construct: endogenous in cells; host or cells: whole apyrase-washed human platelets (outdated from blood banks, or fresh)
Procedure: II. Inhibition of [^3H]2-MeS-ADP Binding to Platelets
Utilizing the second assay the potency of inhibition of such compounds with respect to [^3H]2-MeS-ADP binding to whole platelets is determined. [^3H]2-MeS-ADP binding experiments are routinely performed with outdated human platelets collected by standard procedures at hospital blood banks. Apyrase-washed outdated platelets are prepared as follows (all steps at room temperature, if not indicated otherwise):
Outdated platelet suspensions are diluted with 1 volume of CGS and platelets pelleted by centrifugation at 1900×g for 45 minutes. Platelet pellets are resuspended at 3-6×10^9 platelets/ml in CGS containing 1 U/ml apyrase (grade V, Sigma, St. Louis, Mo.) and incubated for 15 minutes at 37° C. After centrifugation at 730×g for 20 minutes, pellets are resuspended in Hepes-Tyrode's buffer containing 0.1% BSA (Sigma, St. Louis, Mo.) at a concentration of 6.66×10^8 platelets/ml. Binding experiments are performed after >45 minutes resting of the platelets.
Alternatively, binding experiments are performed with fresh human platelets prepared as described in I. (Inhibition of ADP-Mediated Platelet Aggregation in vitro), except that platelets are resuspended in Hepes-Tyrode's buffer containing 0.1% BSA (Sigma, St. Louis, Mo.) at a concentration of 6.66×10^8 platelets/ml. Very similar results are obtained with fresh and outdated platelets.
A platelet ADP receptor binding assay using the tritiated potent agonist ligand [^3H]2-MeS-ADP (Jantzen, H. M. et al. (1999) Thromb. Hemost. 81:111–117) has been adapted to the 96-well microtiter format. In an assay volume of 0.2 ml Hepes-Tyrode's buffer with 0.1% BSA and 0.6% DMSO, 1×10^8 apyrase-washed platelets are preincubated in 96-well flat bottom microtiter plates for 5 minutes with serial dilutions of test compounds before addition of 1 nM [^3H]2-MeS-ADP ([^3H]2-methylthioadenosine-5′-diphosphate, ammonium salt; specific activity 48–49 Ci/mmole, obtained by custom synthesis from Amersham Life Science, Inc., Arlington Heights, Ill., or NEN Life Science Products, Boston, Mass.). Total binding is determined in the absence of test compounds. Samples for nonspecific binding may contain 10^−5 M unlabelled 2-MeS-ADP (RBI, Natick, Mass.). After incubation for 15 minutes at room temperature, unbound radioligand is separated by rapid filtration and two washes with cold (4–8° C.) Binding Wash Buffer (10 mM Hepes pH 7.4, 138 mM NaCl) using a 96-well cell harvester (Minidisc 96, Skatron Instruments, Sterling, Va.) and 8×12 GF/C glassfiber filtermats (Printed Filtermat A, for 1450 Microbeta, Wallac Inc., Gaithersburg, Md.). The platelet-bound radioactivity on the filtermats is determined in a scintillation counter (Microbeta 1450, Wallac Inc., Gaithersburg, Md.). Specific binding is determined by […] binding, and specific binding in the presence of test compounds is expressed as % of specific binding in the absence of test compounds dilutions.

[2] = test system: ADP-induced human platelet aggregation; assay: PRP assay: inhibition of ADP-mediated platelet aggregation in vitro; type: cell-based; conditions: IC50 class
Procedure: I. Inhibition of ADP-Mediated Platelet Aggregation in vitro
The effect of testing the compound according to the invention on ADP-induced human platelet aggregation is preferably assessed in 96-well microtiter assay (see generally the procedures in Jantzen, H. M. et al. (1999) Thromb. Hemost. 81:111–117). Human venous blood is collected from healthy, drug-free volunteers into ACD (85 mM sodium citrate, 111 mM glucose, 71.4 mM citric acid) containing PGI2 (1.25 ml ACD containing 1.6 μM PGI2/10 ml blood; PGI2 was from Sigma, St. Louis, Mo.). Platelet-rich plasma (PRP) is prepared by centrifugation at 160×g for 20 minutes at room temperature. Washed platelets are prepared by centrifuging PRP for 10 minutes at 730×g and resuspending the platelet pellet in CGS (13 mM sodium citrate, 30 mM glucose, 120 mM NaCl; 2 ml CGS/10 ml original blood volume) containing 1 U/ml apyrase (grade V, Sigma, St. Louis, Mo.). After incubation at 37° C. for 15 minutes, the platelets are collected by centrifugation at 730×g for 10 minutes and resuspended at a concentration of 3×10^8 platelets/ml in Hepes-Tyrode's buffer (10 mM Hepes, 138 mM NaCl, 5.5 mM glucose, 2.9 mM KCl, 12 mM NaHCO3, pH 7.4) containing 0.1% bovine serum albumin, 1 mM CaCl2 and 1 mM MgCl2. This platelet suspension is kept >45 minutes at 37° C. before use in aggregation assays.
Inhibition of ADP-dependent aggregation is preferably determined in 96-well flat-bottom microtiter plates using a microtiter plate shaker and plate reader similar to the procedure described by Frantantoni et al., Am. J. Clin. Pathol. 94, 613 (1990). All steps are performed at room temperature. The total reaction volume of 0.2 ml/well includes in Hepes-Tyrodes buffer/0.1% BSA: 4.5×10^7 apyrase-washed platelets, 0.5 mg/ml human fibrinogen (American Diagnostica, Inc., Greenwich, Conn.), serial dilutions of test compounds (buffer for control wells) in 0.6% DMSO. After about 5 minutes preincubation at room temperature, ADP is added to a final concentration of 2 μM which induces submaximal aggregation. Buffer is added instead of ADP to one set of control wells (ADP^− control). The OD of the samples is then determined at 490 nm using a microtiter plate reader (Softmax, Molecular Devices, Menlo Park, Calif.) resulting in the 0 minute reading. The plates are then agitated for 5 min on a microtiter plate shaker and the 5 minute reading is obtained in the plate reader. Aggregation is calculated from the decrease of OD at 490 nm at t=5 minutes compared to t=0 minutes and is expressed as % of the decrease in the ADP control samples after correcting for changes in the unaggregated control samples.

T1 sequence (Q9H244 whole entry): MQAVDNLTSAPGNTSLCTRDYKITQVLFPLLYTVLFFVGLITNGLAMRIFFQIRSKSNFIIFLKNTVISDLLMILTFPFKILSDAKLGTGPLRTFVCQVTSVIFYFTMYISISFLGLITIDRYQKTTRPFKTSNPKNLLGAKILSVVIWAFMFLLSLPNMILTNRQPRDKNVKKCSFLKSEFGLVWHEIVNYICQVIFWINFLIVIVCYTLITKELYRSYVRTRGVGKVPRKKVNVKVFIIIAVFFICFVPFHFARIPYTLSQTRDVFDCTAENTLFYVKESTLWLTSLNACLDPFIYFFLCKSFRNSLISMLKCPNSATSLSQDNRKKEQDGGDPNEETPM

Compound | IC50 [1] [nM] | IC50 [2] [nM]
CNc1cc2c(cc1F)C(=O)N(c1ccc(NC(=O)NS(=O)(=O)c3ccc(Cl)s3)cc1)CO2 [Example 5, 1-(5-chlorothiophen-2-ylsulfonyl)-3-(4-(6-fluoro-7-(methylamino)-4-oxo-2H-benzo[e][1,3]oxazin-3(4H)-yl)phenyl)urea] | < 50 | < 10000
CNc1cc2c(cc1F)C(=O)N(c1ccc(NC(=O)NS(=O)(=O)c3ccc(Cl)s3)c(C)c1)CO2 [Example 10, 1-(5-chlorothiophen-2-ylsulfonyl)-3-(4-(6-fluoro-7-(methylamino)-4-oxo-2H-benzo [e][1,3]oxazin-3(4H)-yl)-2-methylphenyl)urea] | 50 to 500 | 10000 to 30000
CNc1cc2c(cc1F)C(=O)N(c1ccc(NC(=O)NS(=O)(=O)c3ccc(Cl)s3)cc1OC)CO2 [Example 15, 1-(5-chlorothiophen-2-ylsulfonyl)-3-(4-(6-fluoro-7-(methylamino)-4-oxo-2H-benzo [e][1,3]oxazin-3(4H)-yl)-3-methoxyphenyl)urea] | < 50 | < 10000
CCOCCOc1cc(NC(=O)NS(=O)(=O)c2ccc(Cl)s2)ccc1N1COc2cc(NC)c(F)cc2C1=O [Example 20, 1-(5-chlorothiophen-2-ylsulfonyl)-3-(3-(2-ethoxyethoxy)-4-(6-fluoro-7-(methylamino)-4-oxo-2H-benzo[e][1,3]oxazin-3(4H)-yl)phenyl)urea] | > 500 | 
CNc1cc2c(cc1F)C(=O)N(c1ccc(NC(=O)NS(=O)(=O)c3ccc(Cl)s3)cc1OCCN(C)C)CO2 [Example 25, 1-(5-chlorothiophen-2-ylsulfonyl)-3-(3-(2-(dimethylamino)ethoxy)-4-(6-fluoro-7-(methylamino)-4-oxo-2H-benzo[e][1,3]oxazin-3(4H)-yl)phenyl)urea] | > 500 | 
CNc1cc2c(cc1F)C(=O)N(c1cc(C)c(NC(=O)NS(=O)(=O)c3ccc(Cl)s3)c(C)c1)CO2 [Example 26, (5-chlorothiophen-2-ylsulfonyl)-3-(4-(6-fluoro-7-(methylamino)-4-oxo-2H-benzo[e][1,3]oxazin-3(4H)-yl)-2,6-dimethylphenyl)urea] | < 50 | < 10000
CNc1cc2c(cc1F)C(=O)N(c1ccc(NC(=O)NS(=O)(=O)c3ccc(Cl)s3)c(OC)c1)CO2 [Example 27, 1-(5-chlorothiophen-2-ylsulfonyl)-3-(4-(6-fluoro-7-(methylamino)-4-oxo-2H-benzo[e][1,3]oxazin-3(4H)-yl)-2-methoxyphenyl)urea] | < 50 | > 30000
CNc1cc2c(cc1F)C(=O)N(c1ccc(NC(=O)NS(=O)(=O)c3ccc(Cl)s3)c(OCCOC)c1)CO2 [Example 28, 1-(5-chlorothiophene-2-ylsulfonyl)-3-(4-(6-fluoro-7-(methylamino)-4-oxo-2H-benzo[e][1,3]oxazin-3(4H)-yl)-2-(2-methoxyethoxy)phenyl)urea] | < 50 | < 10000
CNc1cc2c(cc1F)C(=O)N(c1ccc(NC(=O)NS(=O)(=O)c3ccc(Cl)s3)c(OCCN(C)C)c1)CO2 [Example 34] | 50 to 500 | 10000 to 30000
CNc1cc2c(cc1F)C(=O)N(c1ccc(NC(=O)NS(=O)(=O)c3ccc(Cl)s3)c(C(=O)N(C)C)c1)CO2 [Example 37, 1-(5-chlorothiophen-2-ylsulfonyl)-3-(2-(dimethylcarbamoyl)-4-(6-fluoro-7-(methylamino)-4-oxo-2H-benzo[e][1,3]oxazin-3(4H)-yl)phenyl)urea] | 50 to 500 | 
CNc1cc2c(cc1F)C(=O)N(c1ccc(NC(=O)NS(=O)(=O)c3ccc(Cl)s3)c(C(N)=O)c1)CO2 [Example 39, 1-(2-carbamoyl-4-(6-fluoro-7-(methylamino)-4-oxo-2H-benzo[e][1,3]oxazin-3(4H)-yl)phenyl)-3-(5-chlorothiophen-2-ylsulfonyl)urea] | < 50 | < 10000
CNc1cc2c(cc1F)C(=O)N(c1ccc(NC(=O)NS(=O)(=O)c3ccc(Cl)s3)nc1)CO2 [Example 41, 1-(5-chlorothiophen-2-ylsulfonyl)-3-(5-(6-fluoro-7-(methylamino)-4-oxo-2H-benzo[e][1,3]oxazin-3(4H)-yl)pyridin-2-yl)urea] | < 50 | < 10000
CNc1cc2c(cc1F)C(=O)N(c1cnc(NC(=O)NS(=O)(=O)c3ccc(Cl)s3)c(C)c1)CO2 [Example 42, 1-(5-chlorothiophen-2-ylsulfonyl)-3-(5-(6-fluoro-7-(methylamino)-4-oxo-2H-benzo [e][1,3]oxazin-3(4H)-yl)-3-methylpyridin-2-yl)urea] | < 50 | < 10000
CNc1cc2c(cc1F)C(=O)N(c1ccc(NC(=O)NS(=O)(=O)c3ccc(C)s3)nc1)CO2 [Example 43] | < 50 | < 10000
CNc1cc2c(cc1F)C(=O)N(c1ccc(NC(=O)NS(=O)(=O)c3ccc(OC)s3)nc1)CO2 [Example 44, 1-(5-(6-fluoro-7-(methylamino)-4-oxo-2H-benzo[e][1,3]oxazin-3(4H)-yl)pyridin-2-yl)-3-(5-methoxythiophen-2-ylsulfonyl)urea] | 50 to 500 | > 30000
CNc1cc2c(cc1F)C(=O)N(c1ccc(NC(=O)NS(=O)(=O)c3ccc(OC)s3)cc1)CO2 [Example 45] | < 50 | > 30000
CNc1cc2c(cc1F)C(=O)N(c1ccc(NC(=O)NS(=O)(=O)c3ccc(C)s3)cc1)CO2 [Example 46, 1-(4-(6-fluoro-7-(methylamino)-4-oxo-2H-benzo[e][1,3]oxazin-3(4H)-yl)-3-5-methylthiophen-2ylsulfonyl)urea] | < 50 | 10000 to 30000
CNc1cc2c(cc1Cl)C(=O)N(c1ccc(NC(=O)NS(=O)(=O)c3ccc(Cl)s3)cc1)CO2 [Example 51, 1-(5-chlorothiophen-2-ylsulfonyl)-3-(4-(6-chloro-7-(methylamino)-4-oxo-2H-benzo[e][1,3]oxazin-3(4H)-yl)phenyl)urea] | < 50 | > 30000
CNc1cc2c(cc1F)C(=O)N(c1ccc(C(=O)NS(=O)(=O)c3ccc(Cl)s3)cc1)CO2 [Example 56, N-(5-chlorothiophen-2-ylsulfonyl)-4-(6-fluoro-7-(methylamino) -4-oxo-2H-benzo[e] [1,3]oxazin-3(4H)-yl) benzamide] | < 50 | < 10000
